Experimental data published in US7910751B2, “Heterocyclidene acetamide derivative” (Mochida Pharmaceutical Co., Ltd., priority 2005, dated 2011).

Target: T1, human TRPV1 (Homo sapiens, UniProt Q8NER1)
T1 construct: expressed in transfected cells; host or cells: CHO-K1
Assay: Measurement of capsaicin-induced Ca influx in human TRPV1 transformed CHO cell line using FDSS-6000
Type: cell-based
Conditions: concentration at which the capsaicin concentration-reaction curve is shifted two times to the right, human TRPV1 transformed CHO cells

T1 sequence (Q8NER1 whole entry): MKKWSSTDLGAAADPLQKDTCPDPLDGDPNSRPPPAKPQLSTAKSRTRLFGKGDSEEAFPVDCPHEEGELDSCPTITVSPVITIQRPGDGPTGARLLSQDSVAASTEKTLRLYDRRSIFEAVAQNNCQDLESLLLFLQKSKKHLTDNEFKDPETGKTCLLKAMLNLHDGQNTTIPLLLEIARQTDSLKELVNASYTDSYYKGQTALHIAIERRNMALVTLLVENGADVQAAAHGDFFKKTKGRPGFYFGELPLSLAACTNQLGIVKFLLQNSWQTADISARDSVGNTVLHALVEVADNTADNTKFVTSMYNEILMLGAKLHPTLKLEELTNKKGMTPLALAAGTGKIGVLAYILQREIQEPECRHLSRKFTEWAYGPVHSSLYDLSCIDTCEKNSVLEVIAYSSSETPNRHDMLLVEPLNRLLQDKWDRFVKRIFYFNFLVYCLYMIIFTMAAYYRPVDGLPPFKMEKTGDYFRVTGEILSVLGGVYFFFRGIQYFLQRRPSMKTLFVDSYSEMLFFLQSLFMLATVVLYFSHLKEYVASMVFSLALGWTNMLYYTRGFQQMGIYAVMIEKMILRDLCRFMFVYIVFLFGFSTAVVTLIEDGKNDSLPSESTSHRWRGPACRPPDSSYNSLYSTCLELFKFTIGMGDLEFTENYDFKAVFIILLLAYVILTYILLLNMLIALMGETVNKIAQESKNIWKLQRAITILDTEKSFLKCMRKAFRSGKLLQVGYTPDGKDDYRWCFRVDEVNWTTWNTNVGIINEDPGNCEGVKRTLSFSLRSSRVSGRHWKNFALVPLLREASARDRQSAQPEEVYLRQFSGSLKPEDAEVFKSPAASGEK

Compound | A2 VALUE
O=C(/C=C1\CCOc2cc(C(F)(F)F)ccc21)Nc1cccc2c1CCCC2 [Example 202, (E)-2-(7-trifluoromethyl-chroman-4-ylidene)-N-(5,6,7,8-tetrahydronaphthalen-1-yl)acetamide] | A (compounds of the present invention having an A2 value of less than 100 nM are represented by A)
COC(=O)CCC(=O)N1CC/C(=C\C(=O)Nc2ccc3cccnc3c2)c2ccc(C(F)(F)F)cc21 [Example 101, (E)-2-(7-trifluoromethyl-2,3-dihydro-1-(3-(carbomethoxy)propanoyl)quinolin-4(1H)-ylidene)-N-(quinolin-7-yl)acetamide] | A (compounds of the present invention having an A2 value of less than 100 nM are represented by A)
O=C(/C=C1\CCCOc2cc(C(F)(F)F)ccc21)NCc1ccc2c(c1)CCO2 [Example 35, (E)-2-(8-trifluoromethyl-3,4-dihydrobenzo[b]oxepin-5(2H)-ylidene)-N-((2,3-dihydrobenzofuran-5-yl)methyl)acetamide] | B (compounds having an A2 value of 100 nM or more are represented by B)
COc1cccc(NC(=O)/C=C2\CCCOc3cc(C(F)(F)F)ccc32)c1 [Example 16, (E)-2-(8-trifluoromethyl-3,4-dihydrobenzo[b]oxepin-5(2H)-ylidene)-N-(3-methoxyphenyl)acetamide] | A (compounds of the present invention having an A2 value of less than 100 nM are represented by A)
CC(=O)OC1CCc2c(NC(=O)/C=C3\CCCOc4cc(C(F)(F)F)ccc43)cccc21 (centres unmarked) [Example 161, (E)-2-(8-trifluoromethyl-3,4-dihydrobenzo[b]oxepin-5(2H)-ylidene)-N-(indan-1-acetoxy-4-yl)acetamide] | B (compounds having an A2 value of 100 nM or more are represented by B)
O=C(/C=C1\CCCOc2cc(C(F)(F)F)ccc21)Nc1cccc2c(O)cccc12 [Example 150, (E)-2-(8-trifluoromethyl-3,4-dihydrobenzo[b]oxepin-5(2H)-ylidene)-N-(5-hydroxynaphthalen-1-yl)acetamide] | A (compounds of the present invention having an A2 value of less than 100 nM are represented by A)
CC1(C)C/C(=C\C(=O)Nc2cccc3c2CC(O)CN3)c2ccc(C(F)(F)F)cc2O1 (centres unmarked) [Example 246, (E)-2-(7-trifluoromethyl-2,2-dimethylchroman-4-ylidene)-N-(3-hydroxy-1,2,3,4-tetrahydroquinolin-5-yl)acetamide] | A (compounds of the present invention having an A2 value of less than 100 nM are represented by A)
O=C(/C=C1\CCCOc2cc(C(F)(F)F)ccc21)NC1CCCc2cccnc2C1 (centres unmarked) [Example 45, (E)-2-(8-trifluoromethyl-3,4-dihydrobenzo[b]oxepin-5(2H)-ylidene)-N-(6,7,8,9-tetrahydro-5H-cyclohepta[b]pyridin-8-yl)acetamide] | B (compounds having an A2 value of 100 nM or more are represented by B)
O=C(/C=C1\CCOc2cc(C(F)(F)F)c(F)cc21)Nc1cccc2c1CC(O)CC2 (centres unmarked) [Example 214, (E)-2-(6-fluoro-7-trifluoromethyl-chroman-4-ylidene)-N-(7-hydroxy-5,6,7,8-tetrahydronaphthalen-1-yl)acetamide] | A (compounds of the present invention having an A2 value of less than 100 nM are represented by A)
CCC(F)(F)CC(=O)N1CC/C(=C\C(=O)Nc2cccc3c2CC(O)CC3)c2ccc(C(F)(F)F)cc21 (centres unmarked) [Example 117, (E)-2-(1-(3,3-difluoropentanoyl)-7-trifluoromethyl-2,3-dihydroquinolin-4(1H)-ylidene)-N-(7-hydroxy-5,6,7,8-tetrahydronaphthalen-1-yl)acetamide] | A (compounds of the present invention having an A2 value of less than 100 nM are represented by A)
CC(F)(F)CC(=O)N1CC/C(=C\C(=O)Nc2cccc3c2CC(O)CC3)c2ccc(C(F)(F)F)cc21 (centres unmarked) [Example 116, (E)-2-(1-(3,3-difluorobutanoyl)-7-trifluoromethyl-2,3-dihydroquinolin-4(1H)-ylidene)-N-(7-hydroxy-5,6,7,8-tetrahydronaphthalen-1-yl)acetamide] | A (compounds of the present invention having an A2 value of less than 100 nM are represented by A)
O=C(/C=C1\CCOc2cc(C(F)(F)F)ccc21)Nc1cccc2cnccc12 [Example 7, (E)-2-(7-trifluoromethyl-chroman-4-ylidene)-N-(isoquinolin-5-yl)acetamide] | A (compounds of the present invention having an A2 value of less than 100 nM are represented by A)
CCCC(C)C(=O)N1CC/C(=C\C(=O)Nc2ccc3cccnc3c2)c2ccc(C(F)(F)F)cc21 (centres unmarked) [Example 80, (E)-2-(1-(2-methylpentanoyl)-7-trifluoromethyl-2,3-dihydroquinolin-4(1H)-ylidene)-N-(quinolin-7-yl)acetamide] | A (compounds of the present invention having an A2 value of less than 100 nM are represented by A)
CC1(C)C/C(=C\C(=O)Nc2cccc3c2CC(O)CN3)c2ccc(C(F)(F)F)cc2O1 (centres unmarked) [Example 244, (E)-2-(7-trifluoromethyl-2,2-dimethylchroman-4-ylidene)-N-(3-hydroxy-1,2,3,4-tetrahydroquinolin-5-yl)acetamide] | A (compounds of the present invention having an A2 value of less than 100 nM are represented by A)
